Experimental data from PubChem BioAssay (NCI).
“And” between values parts separate entries of the source, which are not always exact repeats. Equal values may be shown once.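 Method: 48-hour compound exposure of cells in 96-well plates, five concentrations, linear interpolation of endpoints. GI50 marks 50% less growth. The concentration for full growth arrest is given as TGI.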

Legend:
Test in all cases: NCI tumour cell line growth inhibition, 48 h
UACC-257 melanoma = test system: UACC-257 melanoma
SNB-19 CNS = test system: SNB-19 CNS
OVCAR-8 ovarian = test system: OVCAR-8 ovarian
SF-295 CNS = test system: SF-295 CNS
M14 melanoma = test system: M14 melanoma
HCC-2998 colon = test system: HCC-2998 colon
CAKI-1 renal = test system: CAKI-1 renal
SR leukemia = test system: SR leukemia
NCI-H23 lung = test system: NCI-H23 lung
BT-549 breast = test system: BT-549 breast

Structure (SMILES)	TGI (UACC-257 melanoma) [µM]	TGI (SNB-19 CNS) [µM]	TGI (OVCAR-8 ovarian) [µM]	TGI (SF-295 CNS) [µM]	TGI (M14 melanoma) [µM]	TGI (HCC-2998 colon) [µM]	TGI (CAKI-1 renal)	TGI (SR leukemia) [µM]	TGI (NCI-H23 lung)	GI50 (UACC-257 melanoma) [µM]	GI50 (BT-549 breast) [µM]	TGI (BT-549 breast) [µM]	GI50 (OVCAR-8 ovarian)	GI50 (SF-295 CNS)	GI50 (M14 melanoma) [µM]	GI50 (HCC-2998 colon) [µM]	GI50 (NCI-H23 lung) [µM]	GI50 (CAKI-1 renal) [µM]	GI50 (SR leukemia) [µM]	GI50 (SNB-19 CNS) [µM]
CC(C)CCC[C@@H](C)C1CCC2[C@@H]3CC=C4C[C@@H](OC(=O)CCC(=O)NCC[N+](C)(C)CCCS(=O)(=O)[O-])CC[C@]4(C)C3CC[C@@]21C (some centres not stated)	48.8	44.7	35	31.6	36	37.5	> 100 µM	–	–	–	–	–	–	–	–	–	–	–	–	–
CCOC(=O)C(=C=Cc1cccs1)C(=O)c1ccccc1	25.5	–	29.3	31.9	28.2	31.2	–	49	28.8 µM	–	–	–	–	–	–	–	–	–	–	–
CC(=O)O/N=C1\C=Cc2c(no[n+]2[O-])C1=O	32.2	> 100	25.4	> 100	33.2	38.7	35.8 µM	48.5	35.5 µM	–	–	–	–	–	–	–	–	–	–	–
Nc1ncnc2c1ncn2C1OC(CO)C(O)C1O (configuration not stated)	> 450	> 450	> 401	> 450	> 100	–	> 100 µM and > 450 µM and 74.9 µM	–	> 100 µM and > 450 µM and 77.3 µM	> 450	7.69	59	32.9 µM and 79.3 µM and 12.6 µM	> 100 µM and 215 µM and 32.6 µM	32.2	1.61	–	–	–	–
c1cc(C2O[C@H]3CCCN3[C@@H]2c2ccncc2)ccn1 (some centres not stated)	> 100	> 100	> 100	> 100	> 100	–	> 100 µM	–	> 100 µM	–	–	–	–	–	–	–	–	–	–	–
CC(C)(C)NC(=O)C12C3C4C1C1C2C3C41I (configuration not stated)	> 100	> 100	> 100	> 100	–	> 100	> 100 µM	> 100	> 100 µM	–	–	–	–	–	–	–	–	–	–	–
CCCCC#Cc1c(I)n(C2OC(CO[Si](C)(C)C(C)(C)C)C3OC(C)(C)OC32)c(=O)[nH]c1=O (configuration not stated)	15.5	–	15.9	51.5	34.8	16.5	25.3 µM	–	31.3 µM	3.1	14.8	28.7	3.73 µM	22 µM	17.6	2.8	13	12.5	–	–
COC(=O)CC[C@@H](NC(=O)C(C)NC(=O)COC1C(O)C(COC(=O)CCCCCCCCCCNC(=O)c2ccc([N+](=O)[O-])c3[nH]c4cc(Br)ccc4c(=O)c23)OC(OCc2ccccc2)C1NC(C)=O)C(N)=O (some centres not stated)	> 100	> 100	> 100	> 100	> 100	93.2	> 100 µM	> 100	> 100 µM	–	–	–	–	–	–	–	–	–	–	–
CC(=O)OCC1OC(n2c(-c3ccc(N)cc3)cc(-c3ccco3)c(C#N)c2=O)C(OC(C)=O)C(OC(C)=O)C1OC(C)=O (configuration not stated)	> 50	> 50	> 50	> 50	> 50	> 50	> 50 µM	> 50	> 50 µM	–	–	–	–	–	–	–	–	–	–	–
Cn1c(=O)c2[nH]c(Nc3ccccc3)nc2n(C)c1=O	> 10	–	> 10	> 10	> 10	> 10	> 10 µM	> 10	> 10 µM	–	–	–	–	–	–	–	–	–	–	–
Cc1ccc(NC(=O)C(=O)C2C(=O)C3=C(CC2(C)C)NC2C=CC=CC2S3)c(C)c1 (configuration not stated)	> 100	> 100	> 100	> 100	–	> 100	> 100 µM	–	> 100 µM	–	–	> 100	–	–	–	–	–	–	–	–
COc1cc(OC)cc(-c2n[nH]nc2-c2ccc3c(c2)OCO3)c1	70.4	> 100	31.3	3.61	12	24.6	> 100 µM	11.6	> 100 µM	18.2	–	–	0.512 µM	0.0989 µM	0.0948	2.15	0.768	0.316	0.0436	0.501
COc1ccc(-n2cc(-c3ccc(Cl)cc3)[nH]c2=S)cc1Cl	> 100	55	> 100	57.7	–	> 100	56.7 µM	–	> 100 µM	> 100	20.5	55	37.4 µM	22 µM	–	57.4	84.4	24.3	–	20.1
CCOc1cccc2cccnc12	> 100	> 100	> 100	> 100	> 100	> 100	–	–	> 100 µM	–	–	–	–	–	–	–	–	–	–	–
CCC(C)CNC1=C(NC(C)=O)C(=O)c2ccccc2C1=O (configuration not stated)	> 100	> 100	> 100	> 100	> 100	> 100	–	> 100	> 100 µM	–	–	–	–	–	–	–	–	–	–	–
O=C(/C=C(\O)C(=O)O)/C=C(\O)c1ccc(Cl)cc1	> 100	> 100	> 100	> 100	> 100	> 100	> 100 µM	> 100	> 100 µM	–	–	–	–	–	–	–	–	–	–	–
COC(=O)c1ccc2n[se]nc2c1	> 100	> 100	> 100	> 100	> 100	> 100	> 100 µM	> 100	> 100 µM	–	–	–	–	–	–	–	–	–	–	–
O=C(CC1Sc2ccccc2NC1=O)Nc1ccc([N+](=O)[O-])cc1[N+](=O)[O-] (configuration not stated)	46.2	40.7	31	34.2	31.2	> 100	–	–	27.2 µM	–	–	–	–	–	–	–	–	–	–	–
Cc1cccc2c1NC(c1c(C)[nH]c3ccccc13)C2 (configuration not stated)	> 100	> 100	> 100	> 100	> 100	> 100	–	> 100	> 100 µM	–	–	–	–	–	–	–	–	–	–	–
COC(=O)C1=C(SC)SC2(C(=O)OC)C3C=C(C)C4C(N13)C42C(=O)OC (configuration not stated)	> 100	> 100	> 100	> 100	> 100	> 100	> 100 µM	> 100	> 100 µM	–	–	–	–	–	–	–	–	–	–	–
CC1=NN(C(=O)CC(=O)Nc2ccccc2)C(=O)C1N=Nc1ccc(S(N)(=O)=O)cc1 (configuration not stated)	> 100	> 100	> 100	> 100	> 100	> 100	> 100 µM	> 100	> 100 µM	–	–	–	–	–	–	–	–	–	–	–
